Data reported in patent US11066379B2 (THE TEXAS A&M UNIVERSITY SYSTEM, priority 2018, dated 2021).
Several values for one entry are separate records, joined by “and”; a condition that tells them apart may be missing. Identical values can stand only once. Entries after “also recorded” stand apart in the source; their conditions may differ.

How the values were obtained:
[1] = system: mitochondrial membrane permeability transition pore (mPTP) in SH-SY5Y cells; test: Mitochondrial membrane permeability transition pore (mPTP) measurement, TBHP-induced opening; assay type: cell-based, human; details: 1 mM TBHP
Protocol: The blockage of mPTP by compounds was determined with the MitoProbe Transition Assay Kit following manufacturer's instructions. Briefly, SH-SY5Y human neuroblastoma cells were re-suspended in pre-warmed PBS/Ca^+2 buffer at a final concentration of 1×10^6 cells/mL. Cells were loaded with 0.01 μM Calcein-AM and incubated at 37° C. for 15 min. Then, 0.4 mM CoCl2 and compounds at selected concentrations were added and incubated for 15 min at 37° C. […] After this incubation, cells were centrifuged and re-suspended in 100 μL of PBS. Just before analyzing, 1 mM tert-butyl hydroperoxide (TBHP) was added to the samples to induce pore opening. Fluorescence intensity was measured at 488 nm excitation and 517 nm emission wavelengths by flow cytometry using the ImageStreamMKII (Amnis Corporation, Merck-Millipore) and […] software. The fluorescence of 10,000 events was analyzed with IDEASR Application vs 6.0 (Amnis Corporation, Merck-Millipore). Experiments were carried out four times.

SH-SY5Y cells [2] = test: Neuroprotection against H2O2 toxicity, cell viability by MTT; assay type: cell-based, human; details: 150 μM H2O2 co-treatment 6 h; 0.01, 0.1 and 1 μM
Protocol: (§1) SH-SY5Y cells were seeded in 96-well plates at a density of 2.5×10^5 cells/mL and allowed to adhere for 24 h. At first, cells were treated only with compounds at concentrations ranging from 10-0.01 μM for 24 h to determine their possible cytotoxic effects. Experiments were carried out three times. For neuroprotective experiments, cells were treated with compounds at non-toxic concentrations (1 μM→1 nM) and 150 μM H2O2 for 6 h. Briefly, cells were washed three times with saline solution and 200 μL of MTT (500 μg/mL) dissolved in saline buffer were added to each well. Following 1 h of incubation at 37° C., the cells were disaggregated with sodium dodecyl sulphate at 5%. Absorbance of formazan crystals was measured at 595 nm with a spectrophotometer plate reader. Saponin was used as death control and its absorbance was subtracted from the other data. All experiments were performed four times.

SHSY5Y cells = test: Neuroprotective effects summarised over all five assays (viability, TMRM, ROS, GSH, mPTP); assay type: cell-based, human; details: 0.001, 0.01 or 0.1 μM; H2O2 challenge
Protocol: As described previously, neuroprotective agents can mediate their effects through inhibition of CypD, an isoform of CypA. […] All assays were performed at the indicated concentrations (0.001, 0.01, or 0.1 μM) based on initial cytotoxicity determined with SHSY5Y cells (Table 1).

CypA = target: T1, CypA (Homo sapiens, UniProt P62937); test: CypA PPIase activity inhibition; assay type: biochemical; details: up to 10 μM, in words
T1 construct: Active human CypA full-length protein was from Abcam; purchased Abcam

SH-SY5Y cells [3] = test: Cellular toxicity in SH-SY5Y cells (MTT, 24 h); assay type: cell-based; details: 24 h; for cytotoxicity toward SH-SY5Y cells: 10-0.01 μM, in words
Excerpt: (§2) The MTT (3-[4,5-dimethylthiazol-2-yl]-2,5-diphenyltetrazoliumbromide) assay was used to determine the cytotoxicity of gracilin derivatives in T lymphocytes (Burton, J. D. Methods Mol. Med., 2005, 110, 69-78) and SH-SY5Y cells and the protective effect of these compounds against H2O2 insult in neuroblastoma cells as previously described (Leiros, M., Alonso, E., Sanchez, J. A., Rateb, M. E., Ebel, R., Houssen, W. E., Jaspars, M., Alfonso, A. and Botana, L. M. ACS Chem. Neurosci., 2014, S, 71-80). Human T lymphocytes were cultured in 24 well plates at the concentration of 2.5×10^6 cells/mL and exposed to different compound concentrations (0.01, 0.1, 1 and 10 μM) added to the culture medium. Human T cells were maintained in the presence of the pure compound at 37° C. in humidified 5% CO2/95% air atmosphere for 48 h.
as §1, with “5%.” for “5%. Absorbance of formazan crystals was measured at 595 nm with a spectrophotometer plate reader. Saponin was used as death control and its absorbance was subtracted from the other data. All experiments were performed four times.”
Absorbance of formazan crystals was measured at 595 nm with a spectrophotometer plate reader. Saponin was used as death control and its absorbance was subtracted from the other data. All experiments were performed four times.

CypD = CypD (Homo sapiens, UniProt P30405); test: CypD enzyme inhibition assay (PPIase activity); assay type: biochemical; details: CypD 1 nM
Protocol: The inhibition of the peptidyl-prolyl cis-trans isomerase (PPIase) activity of compounds was determined by following the rate of hydrolysis of N-succinyl-Ala-Ala-Pro-Phe-pnitroanilide by chymotrypsin. CsA was used as positive control. The assay was performed as previously described (Yan, W., Qing, J., Mei, H., Nong, J., Huang, J., Zhu, J., Jiang, H., Liu, L., Zhang, L. and Li, J. Bioorg. Med. Chem. Lett., 2015, 25, 5682-5686) with small modifications. The assay buffer (20 mM Tris-HCl, 50 mM NaCl, pH 7.8), CypD (1 nM) and the compounds at concentrations ranging from 0.001 to 10 μM were pre-cooled at 4° C. for 1 h. After that time, chymotrypsin at 0.4 mg/mL in 1 mM HCl was added to each well. The reaction was initiated by the addition of the peptide (0.1 mg/mL in 500 mM LiCl in THF). The absorbance at 380 nm was monitored every 30 sec for 5 min with a spectrophotometer plate reader. The blank rates of hydrolysis (in absence of CypD) were subtracted from the rates in the presence of the enzyme. The half-maximal inhibitory concentration (IC50) was calculated by fitting the data with a log(inhibitor) vs. response model of GraphPad Prism 5.0 software. All experiments were performed four times.

SH-SY5Y cells [4] = test: Glutathione assay (Thiol Tracker Violet) after H2O2; assay type: cell-based, human; details: 150 μM H2O2 co-treatment 6 h, two or more concentrations
Protocol: Glutathione (GSH) levels were determined using Thiol Tracker Violet dye, which reacts with reduced thiols in cells. Reduced glutathione represents the majority of intracellular free thiols, so this probe can be used to estimate its levels in cells. Measurements were performed following manufacturer's protocol. Cells were seeded in 96-well plates at 2.5×10^5 cells/mL for 24 h and treated with compounds at various concentrations (1 μM→1 nM) and 150 μM H2O2. After 6 h, SH-SY5Y cells were washed twice with PBS and loaded with 100 μL of prewarmed Thiol Tracker Violet dye (10 μM) for 30 min at 37° C. The fluorescence was measured at 404 nm excitation and emission at 526 nm. All experiments were performed four times.

SH-SY5Y cells [5] = test: Intracellular ROS levels (carboxy-H2DCFDA) after H2O2; assay type: cell-based, human; details: 150 μM H2O2 co-treatment 6 h
Protocol: Intracellular levels of reactive oxygen species (ROS) were determined with carboxy-H2DCFDA (5-(and-6)-carboxy-2′,7′-dichlorodihydrofluorescein diacetate). This dye diffuses through the cellular membrane and is converted by cellular esterases to carboxy-H2DCFH (non-fluorescent). When carboxy-H2DCFH is oxidized by ROS, it becomes fluorescent (Halliwell, B. and Whiteman, M. Br. J. Pharmacol., 2004, 142, 231-255). Cells were seeded at a density of 2.5×10^5 cells/mL in 96-well plates and allowed to attach for 24 h. Following treatment with compounds at various concentrations (1 μM→1 nM) and 150 μM H2O2 for 6 h, SH-SY5Y cells were washed twice with serum-free culture medium. Then, carboxy-H2DCFDA 20 μM dissolved in serum-free culture medium was added to each well and the cells were incubated for 1 h at 37° C. After this incubation, the medium with the fluorescent dye was replaced with PBS and the plate was incubated for 30 min at 37° C. Fluorescence was read at 527 nm, with an excitation wavelength of 495 nm. All experiments were performed four times.

[6] = target: T2, active human CypA protein (Homo sapiens, UniProt P62937); test: Binding to immobilized CypA by surface plasmon resonance (SPR); details: SPR, immobilized CypA
T2 construct: Active human CypA full-length protein was from Abcam; purchased Abcam
Protocol: Sensor surface activation and ligand immobilization were performed by using HBS-EP as running buffer at a flow rate of 5 μL/min and 25° C. CM5 sensor chips were used as surface where Cyp A or D was immobilized as ligand. The CM5 chip is a glass slide coated with a thin layer of gold with a matrix of carboxymethylated dextran covalently attached. The CM5 chip was activated using an amine coupling kit. […] After activation, the ligand, 100 μg/mL of active human CypA protein dissolved in sodium acetate 10 mM at pH 4.5 was added to be immobilized over a CM5 sensor chip. Finally ethanolamine-HCl was injected to deactivate the remaining active esters and to avoid non-specific binding. […] Once analytes were tested and interaction was observed, individual binding curves were analyzed by determining the kinetic constants of analytes-CypA binding, namely, the observed rate constant (Kobs), the association rate constant (Kass), the dissociation rate constant (Kdiss), and the kinetic equilibrium dissociation constant (KD). At equilibrium, by definition, […]. The pseudo-first order association rate constants Kobs (s^-1) were determined for each compound concentration by using the 1:1 Langmuir association model of BiaEvaluation software (BiaCore, Uppsala, Sweden). Then a representation of Kobs against the corresponding concentration of each compound was done. […] From the equation of these representations, Kass, M^-1 s^-1, gradient of the plot, and […]^-1, intercept of the plot was obtained. Within these two values, the kinetic equilibrium dissociation constant KD for each analyte-CypA binding was obtained. The duration of the sample injection was 2 min at 10 μL/min flow rate. Next, dissociation of bound molecules in HBS-EP buffer flow was studied. The bound drugs were removed from the chip surface before the next injection by adding 1 M Glycine-HCl at pH 2.5 for 1 min. The association phase was used to quantify the compound-CypA or D interactions. All experiments were performed four times.

[7] = Viability of human T lymphocytes (MTT assay, 48 h); assay type: cell-based; details: human; 1 μM, 48 hours; read-out: decrease in cell viability
Excerpt: as §2
(§3) Saponin was used as cellular death control and its absorbance was subtracted from the other data. After the incubation period with compounds, assay was performed. First cells were centrifuged (1500 rpm, 5 min, 4° C.). The pellets were resuspended in saline solution with MTT (250 μg/mL) and then incubated at 37° C. during 30 min. After washing off excess MTT twice with saline solution, cells were disaggregated with H2O and sonicated for 1 min and the absorbance of the colored formazan salt was measured at 595 nm in a spectrophotometer plate reader. All experiments were performed three times.

human T lymphocytes = test: Viability of human T lymphocytes (MTT assay, 48 h); assay type: cell-based; details: in words
Excerpt: as §2, §3

[8] = system: Interleukin-2 (IL-2) production in human T lymphocytes; test: Interleukin-2 release in Con A-stimulated human T lymphocytes (ELISA); assay type: cell-based; details: 2 h pre-treatment at non-toxic concentration, Con A 50 μg/mL 48 h
Protocol: Then, cells were stimulated with Concanavalin A (Con A) at 50 μg/mL for 48 h to induce IL-2 release. The amount of IL-2 released to the culture medium was evaluated using Human IL-2 ELISA kit. Experiments were carried out four times.

EGF-R = EGF-R (Homo sapiens, UniProt P00533); details: 100 μM; cited from earlier work
Chain of EGF-R (P00533 25-1210, species assumed): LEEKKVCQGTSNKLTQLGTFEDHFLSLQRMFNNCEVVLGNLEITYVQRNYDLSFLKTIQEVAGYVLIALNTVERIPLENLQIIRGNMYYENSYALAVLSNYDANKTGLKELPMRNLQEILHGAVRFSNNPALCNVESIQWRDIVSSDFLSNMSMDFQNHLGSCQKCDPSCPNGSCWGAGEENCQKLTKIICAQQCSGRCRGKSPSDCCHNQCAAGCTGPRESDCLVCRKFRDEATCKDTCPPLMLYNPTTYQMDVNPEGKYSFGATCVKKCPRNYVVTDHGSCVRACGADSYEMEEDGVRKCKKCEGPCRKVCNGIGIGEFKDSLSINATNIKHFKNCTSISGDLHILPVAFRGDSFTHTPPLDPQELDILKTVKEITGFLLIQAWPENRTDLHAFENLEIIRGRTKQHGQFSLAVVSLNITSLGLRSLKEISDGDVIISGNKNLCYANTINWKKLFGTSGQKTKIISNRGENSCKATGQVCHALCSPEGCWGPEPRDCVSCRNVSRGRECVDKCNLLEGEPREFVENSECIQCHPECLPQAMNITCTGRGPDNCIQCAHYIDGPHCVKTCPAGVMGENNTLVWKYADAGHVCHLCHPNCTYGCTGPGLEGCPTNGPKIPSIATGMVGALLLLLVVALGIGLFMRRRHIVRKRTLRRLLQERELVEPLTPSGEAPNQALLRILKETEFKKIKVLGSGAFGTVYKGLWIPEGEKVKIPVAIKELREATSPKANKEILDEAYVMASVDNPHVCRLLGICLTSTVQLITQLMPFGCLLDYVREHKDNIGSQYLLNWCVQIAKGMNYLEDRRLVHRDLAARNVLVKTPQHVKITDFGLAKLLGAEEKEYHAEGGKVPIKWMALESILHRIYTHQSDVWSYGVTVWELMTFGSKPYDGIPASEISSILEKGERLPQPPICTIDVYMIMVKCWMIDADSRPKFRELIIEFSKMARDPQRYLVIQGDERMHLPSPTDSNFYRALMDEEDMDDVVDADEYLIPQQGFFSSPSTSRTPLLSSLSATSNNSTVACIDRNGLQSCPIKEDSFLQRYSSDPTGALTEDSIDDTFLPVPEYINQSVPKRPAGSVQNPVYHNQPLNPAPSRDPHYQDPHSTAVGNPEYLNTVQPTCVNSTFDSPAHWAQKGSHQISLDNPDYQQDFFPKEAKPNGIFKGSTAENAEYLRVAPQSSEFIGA

Chain of CypD (P30405 30-207): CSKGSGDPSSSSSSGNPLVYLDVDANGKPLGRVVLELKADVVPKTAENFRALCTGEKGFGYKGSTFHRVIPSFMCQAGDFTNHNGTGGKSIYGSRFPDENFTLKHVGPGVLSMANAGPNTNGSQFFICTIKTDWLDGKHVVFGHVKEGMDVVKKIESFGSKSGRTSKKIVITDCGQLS
T2 sequence (P62937 whole entry): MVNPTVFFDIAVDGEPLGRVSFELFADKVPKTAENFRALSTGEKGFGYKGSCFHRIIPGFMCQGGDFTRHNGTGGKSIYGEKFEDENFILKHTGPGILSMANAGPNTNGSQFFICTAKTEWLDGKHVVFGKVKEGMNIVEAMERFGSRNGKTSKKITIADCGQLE
T1 sequence (P62937 whole entry): as above

SMILES: CC(=O)OC[C@@H]1CCC(C2(C)CCCCC2)=C[C@@H]1COC(C)=O [Compound 27b, ((3S,4R)-1′-methyl-[1,1′-bi(cyclohexan)]-1-ene-3,4-diyl)bis(methylene) diacetate]
- mPTP opening [1]: prevent TBHP-induced opening
- protection of cell viability against H2O2 insult (SH-SY5Y cells [2]): protected cells against H2O2 insult at almost all concentrations
- neuroprotective / antioxidant effects based on all five assays (SHSY5Y cells): displayed significant neuroprotective effects; also recorded: significant antioxidant activity in all five assays
- CypA PPIase inhibitory activity (CypA): inactive
- cytotoxicity toward SH-SY5Y cells (SH-SY5Y cells [3]): led to cell death at the higher concentrations tested
- IC50 (CypD): 0.48 µM and < 0.5 µM
- GSH levels (SH-SY5Y cells [4]): recovered GSH levels
- ROS levels (SH-SY5Y cells [5]): diminishing ROS at two or three concentrations

SMILES: CC(=O)O[C@H]1OC[C@@H]2C=C([C@]3(C)CCCC(C)(C)C3)CC[C@H]12 [Compound 29b, (1R,3aR,7aS)-5-(1,3,3-trimethylcyclohexyl)-1,3,3a,6,7,7a-hexahydroisobenzofuran-1-yl acetate]
- Kd [6]: ~3 µM and 2.8 to 6.8 µM
- cytotoxicity at 48 h, 1 μM [7]: 15 to 25%
- impact on T-cell viability (human T lymphocytes): relatively non-toxic
- Inhibition of IL-2 production [8]: ~0%
- cytotoxicity toward SH-SY5Y cells (SH-SY5Y cells [3]): led to cell death at the higher concentrations tested
- IC50 (SH-SY5Y cells [3]; Homo sapiens, SH-SY5Y, read-out: IC50 (cellular toxicity)): 7.9 µM

SMILES: C/C=C1\C([C@@]2(C)CCCC(C)(C)C2)=CC[C@H]2[C@H](OC(C)=O)O[C@H](OC(C)=O)[C@@H]12 [gracilin A, reference compound]
- Kd [6]: 2.53 ± 0.4 µM
- EGF-R inhibition (EGF-R): 70%
